Tests used:
[1] = Electrochemical generation of H+ or OH- ions at indium tin oxide electrode surfaces (cyclic voltammetry); format: physicochemical
From the text: FIG. 7B: Cyclic voltammetric study of the oxidation of Ascorbic acid test in ITO electrodes. Current increase around 0.25V indicates the start of oxidation at ITO electrodes.
Electrode material used: The electrode material was indium tin oxide. This is a semiconducting electrode surface with very large potential window in an aqueous solution.
Oxidation of ascorbic acid at the electrode surfaces produced H^+ ions and changed the electrode surface pH to a more acidic state:
The electrode potential at which it oxidizes was less than 0.5V for Indium tin oxide material vs Ag/AgCl reference electrode (as shown in FIG. 7). This potential was less than the voltages needed for the oxygen evolution reaction in aqueous solution. The ascorbic acid also acted as a sacrificial species to prevent electrochemical degradation of the surface chemistry.
Reduction of benzoquinone (C6H4O2) into Hydroquinone (C6H6O2) can produce OH^− ions at −0.1V: […]

[2] = molecular target: Green Fluorescent Protein (GFP) (Aequorea victoria, UniProt P42212); experiment: Effect of benzoquinone substitution on protein (GFP) stability, by fluorescence intensity; format: biochemical; settings: incubation 30 min in phosphate buffered saline, concentration of benzoquinones 0.5 mM
From the text: Para-benzoquinones and ortho-benzoquinones (compounds 2, 4, 6, and 9 in FIG. 31) are susceptible to nucleophilic attack at the double bond of the ring (positions 2, 3, 5 and 6 in structure 2 of FIG. 31, positions 3, 4, 5 and 6 in structure 4 of FIG. 31, and positions 2 and 3 in structure 6 of FIG. 31). Introducing substituents at some or all of those positions can mitigate the problem of nucleophilic attack. For example, 1,4-benzoquinone (structure 2 in FIG. 31, where R1, R2, R3 and R4 are H) undergoes Michael addition reaction with amino groups of proteins (Loomis et al., Phytochemistry, 5, 423, (1966) and U.S. Pat. No. 6,753,312 B2). […] Fluorescence intensity of Green Fluorescent Protein (GFP) was measured after incubation with three different benzoquinones in phosphate buffered saline for 30 min (concentration of benzoquinones was 0.5 mM). The difference in fluorescence intensity indicates the varied effect that the different substitutions in benzoquinones have on the stability of GFP. Fluorescence intensity of GFP is indicative of its structural integrity. Losses in fluorescence intensity usually indicate loss of its tertiary structure (protein denaturation) (Yin D. X., Zhu L., Schimke R. T. Anal. Biochem. 1996, 235:195-201).

Row | electrode potential at which it oxidizes ([1]; Indium tin oxide material vs Ag/AgCl reference electrode) | start of oxidation (current increase) ([1]; cyclic voltammetric study at ITO electrodes) | Compound | loss in GFP fluorescence intensity after incubation [2] | potential of reduction into Hydroquinone producing OH- ions ([1]; electro-reduction at indium tin oxide electrode)
1 | less than 0.5 V | around 0.25 V | O=C1O[C@H]([C@@H](O)CO)C(O)=C1O [ascorbic acid] |  | 
2 |  |  | O=C1C=CC(=O)C=C1 [unsubstituted benzoquinone, 1,4-benzoquinone] | 25% | −0.1 V

Source: patent US20180318834A1, “INTEGRATION OF ELECTROCHECMICAL PH MODULATION WITH LAB ON A CHIP TECHNOLOGIES” (Robert Bosch GmbH, priority 2015, published 2018)
